Results as given in ChEMBL document CHEMBL3885861, “Open TG-GATES”.

Organism: Rattus norvegicus
Test: Open TG-GATES - Regimen: Daily Repeat
Format: toxicity, organism-based, Sprague-Dawley
Design: regimen Daily Repeat, gender Male, age 6 weeks
Conditions: in vivo, po, 0 mg/kg, route gavage, dose level Control; for APTT / Bas / Eos / Fbg / Hb / Ht / Lym / MCH / MCHC / MCV / Mono / Neu / PT / Plat / RBC / Ret / WBC: tissue Blood; for KIDNEY_L / KIDNEY_R / KIDNEY_TOTAL: tissue Kidney; for LIVER: tissue Liver; for A/G / ALP / ALT / AST / BUN / CRE / Ca / Cl / DBIL / GLC / IP / K / LDH / Na / PL / RALB / TBIL / TC / TG / TP / gamma-GTP: tissue Plasma

NC(=O)N/N=C/c1ccc([N+](=O)[O-])o1 [NITROFURAZONE]
TERMINAL_BW (72 h, time 3 day): 218.5 g
APTT (72 h, time 3 day): 14.6 s
Bas (72 h, time 3 day): 0%
Eos (72 h, time 3 day): 0.6%
Fbg (72 h, time 3 day): 279.4 mg/dL
Hb (72 h, time 3 day): 12.9 g/dL
Ht (72 h, time 3 day): 39.6%
Lym (72 h, time 3 day): 81%
MCH (72 h, time 3 day): 21 pg
MCHC (72 h, time 3 day): 32.6%
MCV (72 h, time 3 day): 64.4 fL
Mono (72 h, time 3 day): 2.6%
Neu (72 h, time 3 day): 15%
PT (72 h, time 3 day): 14.5 s
Plat (72 h, time 3 day): 111.2 x10_4/uL
RBC (72 h, time 3 day): 614.6 x10_4/ul
Ret (72 h, time 3 day): 8.9%
WBC (72 h, time 3 day): 76.9 x10_2/uL
KIDNEY_L (72 h, time 3 day): 0.9 g
KIDNEY_R (72 h, time 3 day): 0.9 g
KIDNEY_TOTAL (72 h, time 3 day): 1.7 g
LIVER (72 h, time 3 day): 9.8 g
A/G (72 h, time 3 day): 0.9
ALP (72 h, time 3 day): 2147 IU/L
ALT (72 h, time 3 day): 51.2 IU/L
AST (72 h, time 3 day): 78.2 IU/L
BUN (72 h, time 3 day): 16 mg/dL
CRE (72 h, time 3 day): 0.2 mg/dL
Ca (72 h, time 3 day): 11.4 mg/dL
Cl (72 h, time 3 day): 106.2 meq/L
DBIL (72 h, time 3 day): 0.016 mg/dL
GLC (72 h, time 3 day): 178.2 mg/dL
IP (72 h, time 3 day): 7.9 mg/dL
K (72 h, time 3 day): 4.4 meq/L
LDH (72 h, time 3 day): 79 IU/L
Na (72 h, time 3 day): 141.6 meq/L
PL (72 h, time 3 day): 161.2 mg/dL
RALB (72 h, time 3 day): 2.6 g/dL
TBIL (72 h, time 3 day): 0.046 mg/dL
TC (72 h, time 3 day): 92.4 mg/dL
TG (72 h, time 3 day): 100.8 mg/dL
TP (72 h, time 3 day): 5.6 g/dL
gamma-GTP (72 h, time 3 day): 1 IU/L
TERMINAL_BW ([…], time 7 day): 259.3 g
TERMINAL_BW ([…], time 14 day): 324.7 g
TERMINAL_BW ([…], time 28 day): 406 g
APTT ([…], time 7 day): 16.9 s
Bas ([…], time 7 day): 0.2%
Eos ([…], time 7 day): 1%
Fbg ([…], time 7 day): 268 mg/dL
Hb ([…], time 7 day): 13.4 g/dL
Ht ([…], time 7 day): 39.9%
Lym ([…], time 7 day): 75%
MCH ([…], time 7 day): 21.1 pg
MCHC ([…], time 7 day): 33.5%
MCV ([…], time 7 day): 62.8 fL
Mono ([…], time 7 day): 3.2%
Neu ([…], time 7 day): 20.2%
PT ([…], time 7 day): 14.4 s
Plat ([…], time 7 day): 112.6 x10_4/uL
RBC ([…], time 7 day): 636.4 x10_4/ul
Ret ([…], time 7 day): 7%
WBC ([…], time 7 day): 96.1 x10_2/uL
APTT ([…], time 14 day): 14.3 s
Bas ([…], time 14 day): 0.2%
Eos ([…], time 14 day): 0.8%
Fbg ([…], time 14 day): 303 mg/dL
Hb ([…], time 14 day): 13.6 g/dL
Ht ([…], time 14 day): 41.4%
Lym ([…], time 14 day): 77.8%
MCH ([…], time 14 day): 20.7 pg
MCHC ([…], time 14 day): 32.8%
MCV ([…], time 14 day): 63.2 fL
Mono ([…], time 14 day): 2%
Neu ([…], time 14 day): 18.2%
PT ([…], time 14 day): 14.4 s
Plat ([…], time 14 day): 121.6 x10_4/uL
RBC ([…], time 14 day): 657.2 x10_4/ul
Ret ([…], time 14 day): 5.7%
WBC ([…], time 14 day): 91.3 x10_2/uL
APTT ([…], time 28 day): 16.2 s
Bas ([…], time 28 day): 0%
Eos ([…], time 28 day): 1.2%
Fbg ([…], time 28 day): 275.6 mg/dL
Hb ([…], time 28 day): 15 g/dL
Ht ([…], time 28 day): 44.5%
Lym ([…], time 28 day): 77%
MCH ([…], time 28 day): 19.5 pg
MCHC ([…], time 28 day): 33.7%
MCV ([…], time 28 day): 58 fL
Mono ([…], time 28 day): 1.8%
Neu ([…], time 28 day): 19.4%
PT ([…], time 28 day): 14.9 s
Plat ([…], time 28 day): 105 x10_4/uL
RBC ([…], time 28 day): 767.2 x10_4/ul
Ret ([…], time 28 day): 2.6%
WBC ([…], time 28 day): 74.7 x10_2/uL
KIDNEY_L ([…], time 7 day): 1.1 g
KIDNEY_R ([…], time 7 day): 1.1 g
KIDNEY_TOTAL ([…], time 7 day): 2.1 g
KIDNEY_L ([…], time 14 day): 1.3 g
KIDNEY_R ([…], time 14 day): 1.2 g
KIDNEY_TOTAL ([…], time 14 day): 2.5 g
KIDNEY_L ([…], time 28 day): 1.5 g
KIDNEY_R ([…], time 28 day): 1.3 g
KIDNEY_TOTAL ([…], time 28 day): 2.8 g
LIVER ([…], time 7 day): 12.2 g
LIVER ([…], time 14 day): 15.1 g
LIVER ([…], time 28 day): 16.8 g
A/G ([…], time 7 day): 0.8
ALP ([…], time 7 day): 1832.4 IU/L
ALT ([…], time 7 day): 45.8 IU/L
AST ([…], time 7 day): 69 IU/L
BUN ([…], time 7 day): 15.6 mg/dL
CRE ([…], time 7 day): 0.2 mg/dL
Ca ([…], time 7 day): 11.2 mg/dL
Cl ([…], time 7 day): 104 meq/L
DBIL ([…], time 7 day): 0.022 mg/dL
GLC ([…], time 7 day): 196.2 mg/dL
IP ([…], time 7 day): 7.5 mg/dL
K ([…], time 7 day): 3.6 meq/L
LDH ([…], time 7 day): 69 IU/L
Na ([…], time 7 day): 141.6 meq/L
PL ([…], time 7 day): 146.4 mg/dL
RALB ([…], time 7 day): 2.6 g/dL
TBIL ([…], time 7 day): 0.054 mg/dL
TC ([…], time 7 day): 76.2 mg/dL
TG ([…], time 7 day): 93.2 mg/dL
TP ([…], time 7 day): 5.6 g/dL
gamma-GTP ([…], time 7 day): 1 IU/L
A/G ([…], time 14 day): 0.8
ALP ([…], time 14 day): 1410 IU/L
ALT ([…], time 14 day): 43.4 IU/L
AST ([…], time 14 day): 65.6 IU/L
BUN ([…], time 14 day): 17.4 mg/dL
CRE ([…], time 14 day): 0.2 mg/dL
Ca ([…], time 14 day): 11 mg/dL
Cl ([…], time 14 day): 105.4 meq/L
DBIL ([…], time 14 day): 0.012 mg/dL
GLC ([…], time 14 day): 195.4 mg/dL
IP ([…], time 14 day): 7.5 mg/dL
K ([…], time 14 day): 4 meq/L
LDH ([…], time 14 day): 70 IU/L
Na ([…], time 14 day): 142.8 meq/L
PL ([…], time 14 day): 159.8 mg/dL
RALB ([…], time 14 day): 2.6 g/dL
TBIL ([…], time 14 day): 0.046 mg/dL
TC ([…], time 14 day): 79.2 mg/dL
TG ([…], time 14 day): 119 mg/dL
TP ([…], time 14 day): 5.8 g/dL
gamma-GTP ([…], time 14 day): 1.2 IU/L
A/G ([…], time 28 day): 0.8
ALP ([…], time 28 day): 1109.8 IU/L
ALT ([…], time 28 day): 38 IU/L
AST ([…], time 28 day): 62.4 IU/L
BUN ([…], time 28 day): 16.6 mg/dL
CRE ([…], time 28 day): 0.2 mg/dL
Ca ([…], time 28 day): 10.9 mg/dL
Cl ([…], time 28 day): 104 meq/L
DBIL ([…], time 28 day): 0.014 mg/dL
GLC ([…], time 28 day): 192 mg/dL
IP ([…], time 28 day): 6.9 mg/dL
K ([…], time 28 day): 3.4 meq/L
LDH ([…], time 28 day): 61.2 IU/L
Na ([…], time 28 day): 145.2 meq/L
PL ([…], time 28 day): 139.6 mg/dL
RALB ([…], time 28 day): 2.7 g/dL
TBIL ([…], time 28 day): 0.068 mg/dL
TC ([…], time 28 day): 60.6 mg/dL
TG ([…], time 28 day): 145.4 mg/dL
TP ([…], time 28 day): 6.1 g/dL
gamma-GTP ([…], time 28 day): 0.8 IU/L
